In US12171755B2, “PAPD5 inhibitors and methods of use thereof” (Children's Medical Center Corporation, priority 2017, dated 2024):

Target: T1, PAPD5 (Homo sapiens, UniProt Q8NDF8)
T1 construct: made in house
Assay: High-throughput luminescence (KinaseGlo) RNA polyadenylation assay, ATP utilization by recombinant PAPD5
Assay type: biochemical
Settings: Table 4 (entries of Table 5), ratio of luminescence with inhibitor to DMSO; for Fold-change determined at compound concentration 33 μM: 33 μM compound; for Fold-change determined at compound concentration 100 μM: 100 μM compound, higher = higher inhibition
Procedure, shortened: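 Values are ratios of inhibitor to DMSO luminescence, so larger numbers mean less ATP consumed. Screening was run in duplicate with a 2 h room-temperature reaction of recombinant PAPD5, ATP and oligo RNA substrate plus compound. Residual ATP was detected after a 10 min KinaseGlo step.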

T1 sequence (Q8NDF8 68-698 isoform Q8NDF8-5): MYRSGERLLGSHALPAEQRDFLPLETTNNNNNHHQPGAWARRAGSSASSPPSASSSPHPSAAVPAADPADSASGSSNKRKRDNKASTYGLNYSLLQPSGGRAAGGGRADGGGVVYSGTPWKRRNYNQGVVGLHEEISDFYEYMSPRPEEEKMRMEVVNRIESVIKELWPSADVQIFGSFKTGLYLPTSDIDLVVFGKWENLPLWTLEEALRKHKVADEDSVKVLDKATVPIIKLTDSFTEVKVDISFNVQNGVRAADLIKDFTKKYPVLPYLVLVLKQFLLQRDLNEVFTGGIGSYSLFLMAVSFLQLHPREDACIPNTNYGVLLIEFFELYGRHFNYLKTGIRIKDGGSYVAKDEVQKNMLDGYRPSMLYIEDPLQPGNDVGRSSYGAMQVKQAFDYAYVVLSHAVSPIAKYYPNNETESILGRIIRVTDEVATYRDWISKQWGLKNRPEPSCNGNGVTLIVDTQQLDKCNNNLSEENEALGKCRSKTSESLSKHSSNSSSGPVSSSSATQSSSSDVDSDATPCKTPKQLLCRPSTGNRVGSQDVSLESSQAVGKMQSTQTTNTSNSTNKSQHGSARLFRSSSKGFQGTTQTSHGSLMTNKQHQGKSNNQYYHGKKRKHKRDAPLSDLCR

CCOC(=O)C1CCN(c2nnc(Cc3ccncc3)c3ccccc23)CC1 [Entry 53, Ethyl 1-[4-(pyridin-4-ylmethyl)phthalazin-1-yl]piperidine-4-carboxylate]
Fold-change determined at compound concentration 33 μM: 1.308
Fold-change determined at compound concentration 100 μM: 1.807

COCCNC(=O)CSc1c2c(nc3cc(Cl)ccc13)CCCC2 [Entry 89, 2-[(6-chloro-1,2,3,4-tetrahydroacridin-9-yl)sulfanyl]-N-(2-methoxyethyl)acetamide]
Fold-change determined at compound concentration 33 μM: 1.098
Fold-change determined at compound concentration 100 μM: 1.211

O=C(O)c1ccc(N2C(=O)c3[nH]nc(-c4ccccc4)c3C2c2cccc(O)c2)cc1 (stereo not drawn) [Entry 242, 4-[4-(3-hydroxyphenyl)-6-oxo-3-phenyl-1,4-dihydropyrrolo[3,4-c]pyrazol-5-yl]benzoic acid]
Fold-change determined at compound concentration 33 μM: 1.068
Fold-change determined at compound concentration 100 μM: 1.283

CCCNC(=O)CSc1c2c(nc3ccc(Cl)cc13)CCCC2 [Entry 90, 2-[(7-chloro-1,2,3,4-tetrahydroacridin-9-yl)sulfanyl]-N-propylacetamide]
Fold-change determined at compound concentration 33 μM: 1.105
Fold-change determined at compound concentration 100 μM: 1.253

Cc1ccc(-c2onc3ccc(-c4cc(C(=O)O)c5ccccc5n4)cc23)cc1 [Entry 84, 2-[3-(4-methylphenyl)-2,1-benzoxazol-5-yl]quinoline-4-carboxylic acid]
Fold-change determined at compound concentration 33 μM: 1.12
Fold-change determined at compound concentration 100 μM: 1.568

CC1=C2C(=NC(=O)CC2c2ccc(O)cc2)N(c2ccc3nncn3n2)N1 (stereo not drawn) [Entry 147, 4-(4-hydroxyphenyl)-3-methyl-1-([1,2,4]triazolo[4,3-b]pyridazin-6-yl)-4,5-dihydro-2H-pyrazolo[3,4-b]pyridin-6-one]
Fold-change determined at compound concentration 33 μM: 1.118
Fold-change determined at compound concentration 100 μM: 1.243

Cc1ccccc1C(=O)Nc1nc2nc(-c3ccccc3)cc(=O)n2[nH]1 [Entry 150, 2-methyl-N-(7-oxo-5-phenyl-1H-[1,2,4]triazolo[1,5-a]pyrimidin-2-yl)benzamide]
Fold-change determined at compound concentration 33 μM: 1.19
Fold-change determined at compound concentration 100 μM: 1.577

COc1ccc(S(=O)(=O)Nc2cc3c(cc2Oc2ccccc2)n(C)c(=O)c(=O)n3C)cc1 [Entry 136, N-(1,4-dimethyl-2,3-dioxo-7-phenoxy-1,2,3,4-tetrahydroquinoxalin-6-yl)-4-methoxybenzenesulfonamide]
Fold-change determined at compound concentration 33 μM: 1.082
Fold-change determined at compound concentration 100 μM: 1.303

Cc1ccc2cc(-c3noc(CCC(=O)Nc4nccs4)n3)c(O)nc2c1 [Entry 94, 3-[3-(2-hydroxy-7-methylquinolin-3-yl)-1,2,4-oxadiazol-5-yl]-N-1,3-thiazol-2-ylpropanamide]
Fold-change determined at compound concentration 33 μM: 1.294
Fold-change determined at compound concentration 100 μM: 1.926

CCc1cc(=O)n2nc(NCc3ccccc3C)nc2[nH]1 [Entry 143, 5-ethyl-2-[(2-methylbenzyl)amino][1,2,4]triazolo[1,5-a]pyrimidin-7(4H)-one]
Fold-change determined at compound concentration 33 μM: 1.116
Fold-change determined at compound concentration 100 μM: 1.255

O=C(NCCN1CCCC1)c1ccc(Cn2c(SCc3ccc(Cl)cc3)nc3ccncc32)cc1 [Entry 203, 4-({2-[(4-chlorobenzyl)thio]-3H-imidazo[4,5-c]pyridin-3-yl}methyl)-N-(2-pyrrolidin-1-ylethyl)benzamide]
Fold-change determined at compound concentration 33 μM: 1.106
Fold-change determined at compound concentration 100 μM: 1.31

CCCCN(CCCC)CCCNC(=O)c1ccc2c(c1)sc1nc(-c3ccc(OC)cc3)cn12 [Entry 186, N-[3-(dibutylamino)propyl]-2-(4-methoxyphenyl)imidazo[2,1-b][1,3]benzothiazole-7-carboxamide]
Fold-change determined at compound concentration 33 μM: 1.163
Fold-change determined at compound concentration 100 μM: 1.531

Cc1nc[nH]c1CN1CCc2c(c3ccccc3n2C)C1=O [Entry 111, 5-methyl-2-((4-methyl-1H-imidazol-5-yl)methyl)-2,3,4,5-tetrahydro-1H-pyrido[4,3-b]indol-1-one]
Fold-change determined at compound concentration 33 μM: 1.78
Fold-change determined at compound concentration 100 μM: 2.308

CCN(CC)CCNC(=O)c1ccc(Cn2c(=O)c3cccn3c3cccnc32)cc1 [Entry 69, N-(2-(diethylamino)ethyl)-4-((6-oxopyrido[2,3-e]pyrrolo[1,2-a]pyrazin-5(6H)-yl)methyl)benzamide]
Fold-change determined at compound concentration 33 μM: 1.116
Fold-change determined at compound concentration 100 μM: 1.223

Cc1c(C(=O)NCc2ccccc2)oc2c1-c1[nH]ncc1CC2 [Entry 175, N-benzyl-8-methyl-4,5-dihydro-1H-furo[2,3-g]indazole-7-carboxamide]
Fold-change determined at compound concentration 33 μM: 1.094
Fold-change determined at compound concentration 100 μM: 1.352

COc1cc(Cl)c(NS(=O)(=O)c2cc3[nH]c(=O)c(=O)[nH]c3cc2C)c(OC)c1 [Entry 138, N-(2-chloro-4,6-dimethoxyphenyl)-7-methyl-2,3-dioxo-1,4-dihydroquinoxaline-6-sulfonamide]
Fold-change determined at compound concentration 33 μM: 1.161
Fold-change determined at compound concentration 100 μM: 1.317

Cc1ccc(-c2ccc3nnc(C)n3n2)cc1S(=O)(=O)N1CCCC1 [Entry 146, 3-methyl-6-(4-methyl-3-pyrrolidin-1-ylsulfonylphenyl)-[1,2,4]triazolo[4,3-b]pyridazine]
Fold-change determined at compound concentration 33 μM: 1.07
Fold-change determined at compound concentration 100 μM: 1.217

N#C/C(=C\c1ccc(-c2ccc(Cl)c(C(=O)O)c2)o1)c1nc2ccccc2[nH]1 [Entry 245, 5-[5-[(E)-2-(1H-benzimidazol-2-yl)-2-cyanoethenyl]furan-2-yl]-2-chlorobenzoic acid]
Fold-change determined at compound concentration 33 μM: 1.236
Fold-change determined at compound concentration 100 μM: 1.638

Cc1cccc(C(=O)Nc2nc3nc(-c4ccccc4)cc(=O)n3[nH]2)c1 [Entry 151, 3-methyl-N-(7-oxo-5-phenyl-1H-[1,2,4]triazolo[1,5-a]pyrimidin-2-yl)benzamide]
Fold-change determined at compound concentration 33 μM: 1.312
Fold-change determined at compound concentration 100 μM: 1.799

COc1ccc(NC(=O)CCn2c(=O)c3cccn3c3ccccc32)c(OC)c1 [Entry 67, N-(2,4-dimethoxyphenyl)-3-(4-oxopyrrolo[1,2-a]quinoxalin-5-yl)propanamide]
Fold-change determined at compound concentration 33 μM: 1.122
Fold-change determined at compound concentration 100 μM: 1.238

Cn1c(=O)c2nc(SCCC(=O)O)n(Cc3ccccc3)c2n(C)c1=O [Entry 82, 3-(9-benzyl-1,3-dimethyl-2,6-dioxopurin-8-yl)sulfanylpropanoic acid]
Fold-change determined at compound concentration 33 μM: 1.122
Fold-change determined at compound concentration 100 μM: 1.306
